In patent US20060241174A1, “Vitamin E tocotrienols inhibition of intracellularly obligate pathogen Chlamydia and methods of use” (priority 2005, published 2006):

Legend:
C. trachomatis SVK = test: Flow cytometry on Chlamydia-infected human B-lymphocytes (JY) treated with delta tocotrienol; assay type: cell-based, Chlamydia trachomatis
Procedure: FIG. 5 illustrates flow cytometry on Chlamydia-infected human B-lymphocytes treated with delta tocotrienol. Human B-lymphocyte (JY) cells were treated with a 30 μmol/L concentration of delta tocotrienol in culture for 4 hours, infected with C. trachomatis SVK for 24-72 hours. Immunofluorescent Chlamydia-positive cells were detected by flow cytometry.
Chlamydial Strains: Stocks of C. trachomatis serovar K/VR887 were grown in J774A.1 cells without centrifuge assistance. Infected cells were lysed, this stock aliquoted and frozen down in SPG freeze medium (75.0 g sucrose, 0.52 g potassium phosphate, 1.22 g sodium phosphate dibasic, 0.72 g glutamic acid, diluted in […] ddH2O). These aliquots were stored in liquid N2 or at −80° C., and later thawed for use to infect monolayers.
Cell Lines Used: Mouse macrophages (J774A.1), human mammary tumor cells (MCF-7), and human epithelial cells (Hep-2), were obtained from the American Type Culture collection. Human mammary tumor cells (TMX2-28) were a kind gift from Dr. Arcaro, and human B-lymphocytes (JY) were a kind gift from Dr. Eric Martz. All cell lines were maintained in Richter's improved MEM insulin (IMEMZO, Irvine Scientific, Santa Ana, Calif.) with 5% fetal bovine serum (FBS, Atlanta Biologicals, Norcross, Ga.). Cells were grown to 80% confluence on 12 mm coverslips in 12 well plates (Becton Dickinson Labware, Franklin Lakes, N.J.). A dilution of 1:125 or 1:200 of the C. trachomatis serovar K stock was made using the standard complete cycloheximide overlay media (Bio-Whittaker, Walkersville, Md.) containing 10% FBS, and 1× L-glutamine (CCOM). This was layered onto the coverslip containing monolayers, and incubated for 24-48 hours at 37° C. with 5% CO2. Coverslips with the cell monolayers were harvested, rinsed with phosphate buffered saline (PBS), fixed with 70% cold methanol, stored and subsequently immunostained. […]
Immunostaining: Briefly, infected cells were immunostained with a 1:2 dilution of guinea pig anti-chlamydia polyclonal antibody (Biomeda, Foster City, Calif.), or a 1:125 dilution of rabbit anti-chlamydia EB whole serum for 1 hour at 37° C. Following PBS rinses X3, the bound antibodies were detected using a 1:100 dilution of FITC-conjugated donkey anti-guinea pig or a 1:125 dilution of TRITC-conjugated goat anti-rabbit secondary antibodies (Jackson ImmunoResearch, West Grove, Pa.). […] For photography, slides were assessed in the Massachusetts Central Microscopy Facility using a Zeiss LSM 510 Meta Confocal System and 630× magnification. […]
Samples were analyzed for carriage of Chlamydia-infected cells by FACScan (Becton, Dickinson and Company, Franklin Lakes, N.J.).

LDL = LDL levels in hyperlipidemic patients before and after delta-tocotrienol supplementation; assay type: in vivo, human
Procedure: (§1) In a clinical study, buffy coats from blood samples drawn both before and after delta-tocotrienol supplementation were immunostained for detection of Chlamydia-infected cells. The samples were tested for LDL levels both before and after delta-tocotrienol supplementation.

Chlamydia = test: Detection of Chlamydia-infected white blood cells in hyperlipidemic patients with delta-tocotrienol supplementation; assay type: in vivo, human
Procedure: FIG. 6 illustrates detection and quantification of Chlamydia-infected white blood cells in hyperlipidemic patients with delta-tocotrienol supplementation. Buffy coats of hyperlipidemic patients were immunostained, and for each sample, aliquots of 10,000 cells were assessed. A dotplot of a hyperlipidemic patient prior to supplementation with delta-tocotrienol is shown in the left panel, and a dotplot of a hyperlipidemic patient after 2 months of delta-tocotrienol supplementation (100 mg/day) is shown in the right panel.
Flow Cytometry Assessment of WBC: Flow cytometry (FC) quantification of Chlamydia-infected peripheral WBC used PBS rinsed buffy coat (BC) from HP samples. The BC cells were fixed and permeabilized (1% paraformaldehyde and 1% Triton X-100, 10 min. at RT; Aldrich Chemical Company, Inc., Milwaukee, Wis.). BCs were separately incubated for 1 hour with a 1:200 dilution of rabbit anti-Chlamydia primary antibody (Biodesign International, Saco, Me.) followed by a 1 hour incubation with a 1:150 dilution of FITC-conjugated goat anti-rabbit IgG (H+L) (Jackson ImmunoResearch, West Grove, Pa.), PBS rinsed X3, and mono-dispersed by passage through a nylon mesh filter (Lab-Line Instruments Inc, Melrose Park, Ill.). Sufficient WBCs were added to obtain 10,000 cells/tube and samples were analyzed for carriage of Chlamydia-infected cells by FACScan (Becton, Dickinson and Company, Franklin Lakes, N.J.).
Detection of Chlamydia-Infected White Blood Cells (WBC): Smears of whole blood from each 10 ml hyperlipidemic HP blood sample, average donor age 54 years, were fixed with 70% MEOH for subsequent staining. Immunostaining used a 1:125 dilution of rabbit polyclonal anti-Chlamydia EB antibody followed by a 1:125 dilution of TRITC-conjugated goat anti-rabbit antibody (H+L) (Jackson ImmunoResearch, West Grove, Pa.). Slides were incubated at room temperature for 1 hour with each diluted antibody, rinsed, mounted and sealed as described above. Digital images of optical sections through these samples were acquired with a Zeiss LSM 510 Meta Confocal System.
as §1

Q: Which results are given for delta tocotrienol?
A: maximum chlamydial inhibition in JY cells (C. trachomatis SVK; at 36 hours, 30 μmol/L, flow cytometry): 2.6 fold; persistence of effect (C. trachomatis SVK; following one single tocotrienol treatment): at least 3 days; period in which chlamydial inhibition was effective (C. trachomatis SVK; one single tocotrienol treatment): ≤ 1 days; chlamydial inhibition in JY cells (C. trachomatis SVK; over an infection period of 72 hours, 30 μmol/L, flow cytometry): at least 2 fold; cell number compared to cells grown in culture medium (Cells in culture): no difference in cell number; % Decrease in LDL (LDL; Patient 1 (Chlamydia negative before supplementation)): 20%; % Decrease in LDL (LDL; Patient 2 (Chlamydia positive before supplementation)): 7%; % Decrease in LDL (LDL; Patient 3 (Chlamydia strong positive before supplementation)): 25%; Chlamydial Infection Status after Delta-Tocotrienol Supplementation (Chlamydia; Patient 1, status before: negative): negative; Chlamydial Infection Status after Delta-Tocotrienol Supplementation (Chlamydia; Patient 2, status before: positive): negative; Chlamydial Infection Status after Delta-Tocotrienol Supplementation (Chlamydia; Patient 3, status before: strong positive): negative; Chlamydia-infected white blood cells by flow cytometry (FIG. 6) (Chlamydia; hyperlipidemic patient, 2 months supplementation, 100 mg/day, buffy coat, 10,000 cells): reduced the granularity and amount of Chlamydia-infected cells
